Measurements taken from US9617517B2, “Small chemical compound which promotes induction of differentiation of stem cells into insulin-producing cells and method for inducing differentiation of stem cells into insulin-producing cells using said small chemical compound” (NATIONAL UNIVERSITY CORPORATION KUMAMOTO UNIVERSITY, priority 2011, dated 2017).
Counter-ions that a name gives are not always drawn.

Tested on: mouse ES cells (Pdx1/GFP)
Assay: Differentiation of mouse ES cells into insulin positive cells on nano fiber plate, immunostaining and quantitative image analysis
Assay type: cell-based
Settings: for effect on differentiation into insulin-expressing cells: compound added d11-d17, insulin staining d17 (FIG. 4, 5, 7, 8, 10); for Relative value of Ins positive cells: number of cells with no compound = 1, concentration of each compound (μM), added d11, d13, d15, analysed d17; for hit confirmed by dose-responsiveness: 0.08 to 10 μM, SK7 ES cells; for induction of the differentiation of stem cells into insulin-producing cells: similar separate experiments
Excerpt: Two ES cell lines, one expressing green fluorescent protein (GFP) under the control of insulin 1 promoter, designed ING (Higuchi Y., Shiraki N., Yamane K, Qin Z., Mochitate K., Araki K., Senokuchi K., Yamagata K., Hara M., Kume K., and Kume S., Synthesized basement membranes direct the differentiation of mouse embryonic stem cells into pancreatic lineages. J. Cell Science, 123, 2733-2742, 2010), and the other one expressing GFP under the control of Pdx1 promoter, designated SK7 (Shiraki N, Yoshida T, Araki K, et al. Guided differentiation of embryonic stem cells into Pdx1-expressing regional-specific definitive endoderm. Stem Cells. 2008; 26:874-885), were used. Both cell lines were maintained on mouse embryonic fibroblast (MEF) feeders in Glasgow minimum essential medium (Invitrogen) containing 1000 units/ml leukemia inhibitory factor (LIF; Chemicon), 15% Knocked-out Serum Replacement (KSR; Gibco), 1% fetal bovine serum (FBS; Hyclone), 100 μM nonessential amino acids (NEAA; Invitrogen), 2 mM L-glutamine (L-Gln; Invitrogen), 1 mM sodium pyruvate (Invitrogen), 50 units/ml penicillin and 50 μg/ml streptomycin (PS; Invitrogen) and 100 μM β-mercaptoethanol (β-ME; Sigma), as ES maintenance medium.
For the differentiation studies, ES cells were plated at 5,000 cells per well in Corning 96 well plate with Ultra-Web Synthetic Polyamine Surface (#3873XX1, Corning Coster, Cambridge, Miss.), and cultured. The cells were cultured in Dulbecco's Modified Eagle Medium (DMEM: Invitrogen, Glasgow, UK) containing 4500 mg/L glucose, supplemented with NEAA, L-Gln, PS, β-ME, 10 μg/ml insulin (Sigma-Aldrich), 5.5 μg/ml transferrin (Sigma-Aldrich), 6.7 pg/ml selenium (Sigma-Aldrich), and 0.25% Albmax (Invitrogen), 10 ng/mL recombinant human activin-A (R&D Systems, Minneapolis, Minn.), 5 ng/mL; recombinant human bFGF for 7 days (d1-d7) (I of FIG. 1). And then, the medium was changed to RPMI 1640 medium (Invitrogen) containing 2000 mg/L glucose (Sigma, St Louis, Mo.), 1 μM Retinoic acid (Sigma-Aldrich), 50 ng/ml Human Recombinant Fibroblast Growth Factor-10 (Peprotech, Rocky Hill, N.J.), B27 SUPPLEMENT (Invitrogen) and 0.25 μM 3-Keto-N-(aminoethyl-aminocaproyl-dihydrocinnamoyl) cyclopamine Shh Signaling Antagonist II (Calbiochem, San Diego, Calif.) on d7 to d11 (II of FIG. 1). Finally, the medium was switched to DMEM containing 1000 mg/L glucose supplemented with NEAA, L-Gln, PS, β-ME, 10 μg/ml insulin (Sigma-Aldrich), 5.5 μg/ml transferrin (Sigma-Aldrich), 6.7 pg/ml selenium (Sigma-Aldrich), 0.25% Albmax (Invitrogen) and 10 mM nicotinamide (Sigma-Aldrich) on d11 to d17 (III of FIG. 1). Media were replaced every 2 days with fresh medium and growth factors until d17.
All tested small chemical compounds were solved in dimethyl sulfoxide (DMSO) at given concentration. Compounds were added on d11, d13 and d15 in a medium. Final concentration of DMSO was adjusted at 1.0% in all experiments for compounds.
After 17 days cell culture, cultured ES cells were fixed in 4% paraformaldehyde in PBS for 30 min at room temperature, and rinsed several times with PBS. Then, cells were incubated in the added diluted primary antibody in 20% Blocking One (Nacalai tesque, Tokyo, Japan) in PEST (0.1% Tween-20 in PBS) in a humidified chamber for overnight at 4° C. After washing the cells in PBST, cells were incubated with the secondary antibody in 20% Blocking One for 2 hr at room temperature in dark. After washing off the secondary antibody in PBST, cells were counterstained with […] (DAPI) (Roche Diagnostics). The following antibodies were used as First antibodies: Rabbit anti-GFP (MBL International Corp., Woburn, Mass.), Mouse anti-Insulin (Sigma). The following antibodies were used as Secondary antibodies: Alexa 568-conjugated, Alexa 488-conjugated antibodies (Invitrogen) Cells were counterstained with DAPI (Roche Diagnotics, Basel, Switzerland).

[1] = 0 to 10 μM added from d11, counted d17 (FIG. 14)

Row | SMILES | effect on differentiation into insulin-expressing cells | induction of the differentiation of stem cells into insulin-producing cells | other results
1 | N[C@@H](Cc1c[nH]c2ccc(O)cc12)C(=O)O [5HTP, 5-hydroxytryptophan] | the same effect |  | 
2 | CO[C@@H]1[C@@H]2OP(=O)(O)OC[C@H]2O[C@H]1n1c(Sc2ccc(Cl)cc2)nc2c(N)ncnc21 [8-CPT-2-Me-cAMP] |  |  | Relative value of Ins positive cells: 3.7
3 | C[N+](C)(C)CCOC(N)=O [Carbachol, carbachol] | increased insulin positive cells |  | 
4 | C[C@@](Cc1ccc(O)c(O)c1)(NN)C(=O)O [Carbidopa, carbidopa] | the same effect |  | 
5 | CN1CC[C@@]2(C)c3cc(O)ccc3N(C)[C@@H]12.O=C(O)/C=C/C(=O)O [Eseroline fumarate salt, eseroline fumarate] | increased insulin positive cells |  | hit confirmed by dose-responsiveness: positive; Relative value of Ins positive cells: 1.8
6 | Nc1nc2ncc(CNc3ccc(C(=O)N[C@@H](CCC(=O)O)C(=O)O)cc3)nc2c(=O)[nH]1 [Folic acid, folic acid] |  |  | hit confirmed by dose-responsiveness: positive
7 | COc1cc2c(cc1OC)-c1cc3ccc(OC)c(OC)c3c[n+]1CC2 [Palmatine chloride, palmatine chloride] | increased insulin positive cells |  | hit confirmed by dose-responsiveness: positive
8 | C#CCN(C)Cc1ccccc1 [Pargyline, pargyline hydrochloride] |  | induce the differentiation of stem cells into insulin-producing cells | effect on differentiation of Pdx1 positive cells into insulin-producing cells (1 μM Pargyline (FIG. 6, 7)): disturbs the differentiation of Pdx1 positive cells into insulin-producing cells; effect on Pdx1 positive pancreatic precursor cells (reserpine 0.63 μM, Pargyline 1 μM (FIG. 6, 7)): without influencing the ratio of Pdx1-expressing cells; effect of 1 μM Pargyline on differentiation in presence of reserpine (with 0.63 μM reserpine): deactivated
9 | C[C@](N)(Cc1ccc(O)cc1)C(=O)O [alpha- Methyltyrosine, α-methyltyrosine] | the same effect |  | 
10 | O=C(CCCN1CCN(c2ccccn2)CC1)c1ccc(F)cc1 [azaperone] |  | induce the differentiation of stem cells into insulin-producing cells | 
11 | CN(C)CCC(c1ccc(Cl)cc1)c1ccccn1 (stereo not drawn) [chlorpheniramine maleate] |  | induce the differentiation of stem cells into insulin-producing cells | 
12 | CN/C(=N/CCSCc1nc[nH]c1C)NC#N [cimetidine] |  | induce the differentiation of stem cells into insulin-producing cells | 
13 | CN(C)CCCSC(=N)N [dimaprit dihydrochloride] |  | induce the differentiation of stem cells into insulin-producing cells | 
14 | NCCc1ccc(O)c(O)c1 [dopamine] | suppressed the differentiation of pancreas in a dose-dependent manner |  | effect on insulin positive cells (0.1 μM dopamine (FIG. 11B)): decreased insulin positive cells; effect on enhancement effect of dBu-cAMP (0.1 μM dopamine with 0.6 μM dBu-cAMP (FIG. 11B)): scarcely influenced; effect on increase of insulin-expressing cells mediated by reserpine (0.1 μM dopamine with 0.6 μM reserpine (FIG. 11B)): inhibited completely; concentration inhibiting completely the differentiation of β cells (FIG. 8): ≥ 100 nM
15 | Cc1c2ccncc2c(C)c2c1[nH]c1ccccc12 [ellipticine] |  |  | hit confirmed by dose-responsiveness: positive
16 | COCCCC/C(=N\OCCN)c1ccc(C(F)(F)F)cc1 [fluvoxamine maleate] |  | induce the differentiation of stem cells into insulin-producing cells | 
17 | C[C@@H]1C(=O)O[C@H]2C[C@@]34[C@H]5C[C@@H](C(C)(C)C)[C@]36[C@@H](OC(=O)[C@@H]6O)O[C@@]4(C(=O)O5)[C@]21O [ginkgolide A] |  | induce the differentiation of stem cells into insulin-producing cells | 
18 | NCCc1c[nH]cn1 [histamine] |  |  | number of Pdx1/GFP positive cells [1]: did not vary; number of insulin positive cells [1]: decreased in a concentration-dependent manner
19 | OCCOCCN1CCN(C(c2ccccc2)c2ccc(Cl)cc2)CC1 (stereo not drawn) [hydroxyzine dihydrochloride] |  | induce the differentiation of stem cells into insulin-producing cells | 
